Reference: ChEMBL document CHEMBL3217516, “Library synthesis and cytotoxicity of a family of 2-phenylacrylonitriles and discovery of an estrogen dependent breast cancer lead compound” (Medchemcomm, 2011)

How the values were obtained:
[1] = Cytotoxicity against human MIA cells after 72 hrs by MTT assay; format: functional
[2] = Cytotoxicity against human MCF10A cells after 72 hrs by MTT assay; format: cell-based, MCF-10A
[3] = Cytotoxicity against human MDA-MB-231 cells after 72 hrs by MTT assay; format: cell-based
[4] = tested on: MCF7; assay: Selectivity ratio of GI50 for human MDA-MB-231 cells to GI50 for human MCF7 cells; format: functional
[5] = Selectivity ratio of GI50 for human MCF10A cells to GI50 for human MCF7 cells; format: ADME, cell-based, MCF-10A; settings: MCF10A cells and MCF7 cells, read-out: RatioGI50
[6] = tested on: MCF7; assay: Selectivity ratio of GI50 for human HT29 cells to GI50 for human MCF7 cells; format: functional
[7] = tested on: MCF7; assay: Selectivity ratio of GI50 for human SW480 cells to GI50 for human MCF7 cells; format: functional
[8] = tested on: A2780; assay: Selectivity ratio of GI50 for human A2780 cells to GI50 for human MCF7 cells; format: functional
[9] = tested on: MCF7; assay: Selectivity ratio of GI50 for human H460 cells to GI50 for human MCF7 cells; format: functional
[10] = tested on: MCF7; assay: Selectivity ratio of GI50 for human A431 cells to GI50 for human MCF7 cells; format: functional
[11] = tested on: DU-145; assay: Selectivity ratio of GI50 for human DU145 cells to GI50 for human MCF7 cells; format: functional
[12] = tested on: MCF7; assay: Selectivity ratio of GI50 for human BE(2)-C cells to GI50 for human MCF7 cells; format: functional
[13] = tested on: MCF7; assay: Selectivity ratio of GI50 for human SJ-G2 cells to GI50 for human MCF7 cells; format: functional
[14] = tested on: MCF7; assay: Selectivity ratio of GI50 for human MIA cells to GI50 for human MCF7 cells; format: functional
[15] = tested on: HT-29; assay: Cytotoxicity against human HT-29 cells after 72 hrs by MTT assay; format: functional; settings: HT-29, 72 h
[16] = tested on: SW480; assay: Cytotoxicity against human SW480 cells after 72 hrs by MTT assay; format: functional; settings: SW480, 72 h
[17] = tested on: MCF7; assay: Cytotoxicity against human MCF7 cells after 72 hrs by MTT assay; format: functional; settings: MCF7, 72 h
[18] = tested on: A2780; assay: Cytotoxicity against human A2780 cells after 72 hrs by MTT assay; format: functional; settings: A2780, 72 h
[19] = Cytotoxicity against human H460 cells after 72 hrs by MTT assay; format: functional; settings: NCI-H460, 72 h
[20] = tested on: A-431; assay: Cytotoxicity against human A431 cells after 72 hrs by MTT assay; format: functional; settings: A-431, 72 h
[21] = tested on: DU-145; assay: Cytotoxicity against human DU145 cells after 72 hrs by MTT assay; format: functional; settings: DU-145, 72 h
[22] = Cytotoxicity against human BE(2)-C cells after 72 hrs by MTT assay; format: functional
[23] = Cytotoxicity against human SJ-G2 cells after 72 hrs by MTT assay; format: functional; settings: SJ-G2, 72 h
[24] = tested on: HT-29; assay: Selectivity ratio of GI50 for human H460 cells to GI50 for human HT29 cells; format: functional
[25] = tested on: SW480; assay: Selectivity ratio of GI50 for human H460 cells to GI50 for human SW480 cells; format: functional
[26] = tested on: A2780; assay: Selectivity ratio of GI50 for human H460 cells to GI50 for human A2780 cells; format: functional
[27] = Selectivity ratio of GI50 for human H460 cells to GI50 for human A431 cells; format: functional
[28] = tested on: DU-145; assay: Selectivity ratio of GI50 for human H460 cells to GI50 for human DU145 cells; format: functional
[29] = Selectivity ratio of GI50 for human H460 cells to GI50 for human BE(2)-C cells; format: functional
[30] = Selectivity ratio of GI50 for human H460 cells to GI50 for human SJ-G2 cells; format: functional
[31] = Selectivity ratio of GI50 for human H460 cells to GI50 for human MIA cells; format: functional
[32] = tested on: DU-145; assay: Selectivity ratio of GI50 for human DU145 cells to GI50 for human HT29 cells; format: functional
[33] = tested on: SW480; assay: Selectivity ratio of GI50 for human DU145 cells to GI50 for human SW480 cells; format: functional
[34] = tested on: A2780; assay: Selectivity ratio of GI50 for human DU145 cells to GI50 for human A2780 cells; format: functional
[35] = tested on: DU-145; assay: Selectivity ratio of GI50 for human DU145 cells to GI50 for human H460 cells; format: functional
[36] = tested on: DU-145; assay: Selectivity ratio of GI50 for human DU145 cells to GI50 for human A431 cells; format: functional
[37] = tested on: DU-145; assay: Selectivity ratio of GI50 for human DU145 cells to GI50 for human BE(2)-C cells; format: functional
[38] = tested on: DU-145; assay: Selectivity ratio of GI50 for human DU145 cells to GI50 for human SJ-G2 cells; format: functional
[39] = tested on: DU-145; assay: Selectivity ratio of GI50 for human DU145 cells to GI50 for human MIA cells; format: functional

Structure (SMILES) | GI50 [1] | GI50 at 72 h [2] | GI50 at 72 h [3] | RatioGI50 [4] | selectivity ratio [5] | GI50 [15] | GI50 [16] | GI50 [17] | GI50 [18] | GI50 [19] | GI50 [20] | GI50 [21] | GI50 [22] | GI50 [23] | other results
N#C/C(=C\c1ccc([N+](=O)[O-])cc1)c1ccc(Cl)c(Cl)c1 | 27 µM | 16 µM | 34 µM | 268 | 126 |  |  |  |  |  |  |  |  |  | RatioGI50 [6]: 25; RatioGI50 [7]: 543; RatioGI50 [8]: 543; RatioGI50 [9]: 543; RatioGI50 [10]: 543; RatioGI50 [11]: 543; RatioGI50 [12]: 543; RatioGI50 [13]: 543; RatioGI50 [14]: 543
N#C/C(=C\c1ccc[nH]1)c1ccc(Cl)c(Cl)c1 | 46 µM | 28 µM | 46 µM | 268 | 126 | 15 µM | 23 µM | 0.56 µM | 16 µM | 5.7 µM | 3.2 µM | 41 µM | 25 µM | 20 µM | 
N#C/C(=C\c1cccc(Cl)c1)c1ccc(Cl)c(Cl)c1 | 15 µM |  |  |  |  | 8.4 µM | 8.9 µM | 7.2 µM | 11 µM | 40 µM | 16 µM | 55 µM | 12 µM | 12 µM | RatioGI50 [24]: 5; RatioGI50 [25]: 5; RatioGI50 [26]: 5; RatioGI50 [27]: 5; RatioGI50 [28]: 5; RatioGI50 [29]: 5; RatioGI50 [30]: 5; RatioGI50 [31]: 5; RatioGI50 [32]: 5; RatioGI50 [33]: 5; RatioGI50 [34]: 5; RatioGI50 [35]: 5; RatioGI50 [36]: 5; RatioGI50 [37]: 5; RatioGI50 [38]: 5; RatioGI50 [39]: 5
